Reference: publication PMC5477784 (MedChemComm, 2017)

Key:
[1] = test system: other PRMTs including PRMT5; details: cited from earlier work
PRMT1 [2] = target: T1, PRMT1 (Homo sapiens, UniProt Q99873); assay: Radiometric gel assay with [14C]SAM and H4-20, phosphorimaging; format: biochemical; details: inhibitor 0.2 mM; PRMT1 0.1 μM, [14C]SAM 20 μM, H4-20 100 μM, 30 min, 30°C
PRMT1 [3] = target: T1, PRMT1; assay: Mass spectrometric; format: biochemical; details: inhibitor 0.2 mM; PRMT1 1 μM, SAM 200 μM, H4-20 50 μM, 30°C, 3.5 h

T1 sequence (Q99873 1-353 isoform Q99873-3, species assumed): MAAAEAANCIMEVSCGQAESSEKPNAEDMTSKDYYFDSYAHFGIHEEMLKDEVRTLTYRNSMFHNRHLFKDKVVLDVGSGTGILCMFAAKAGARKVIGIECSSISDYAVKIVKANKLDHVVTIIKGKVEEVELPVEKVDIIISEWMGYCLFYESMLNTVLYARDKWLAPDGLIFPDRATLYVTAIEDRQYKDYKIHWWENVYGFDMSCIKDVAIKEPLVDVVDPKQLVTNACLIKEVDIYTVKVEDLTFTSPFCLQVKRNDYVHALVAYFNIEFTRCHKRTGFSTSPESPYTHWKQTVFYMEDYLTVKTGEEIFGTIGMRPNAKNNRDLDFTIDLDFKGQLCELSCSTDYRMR

methylation in radiometric gel assay (PRMT1 [2]): methylation was still observed
methyl transfer reaction H4-20 to dimethyl H4-20 (mass spectrum) (PRMT1 [3]): incomplete inhibition
Structure (SMILES): N=C(N)c1ccc(-c2ccc(-c3ccc(C(=N)N)cc3)o2)cc1 [Furamidine, furamidine]
selectivity over the other PRMTs including PRMT5 [1]: > 10 fold
